{"source": "ChEMBL document CHEMBL1201862", "about": "“PubChem BioAssay data set” (2004)", "key": {"[1]": {"assay": "HEp-2 cell cytotoxicity, dose response, cytotoxicity control for RSV inhibitor project, HTS (AID 2410)", "assay_type": "functional", "details": "human respiratory syncytial virus"}, "NS3": {"molecular_target": "NS3 (Hepatitis C virus, UniProt A3EZJ3)", "sequence (A3EZJ3 whole entry)": "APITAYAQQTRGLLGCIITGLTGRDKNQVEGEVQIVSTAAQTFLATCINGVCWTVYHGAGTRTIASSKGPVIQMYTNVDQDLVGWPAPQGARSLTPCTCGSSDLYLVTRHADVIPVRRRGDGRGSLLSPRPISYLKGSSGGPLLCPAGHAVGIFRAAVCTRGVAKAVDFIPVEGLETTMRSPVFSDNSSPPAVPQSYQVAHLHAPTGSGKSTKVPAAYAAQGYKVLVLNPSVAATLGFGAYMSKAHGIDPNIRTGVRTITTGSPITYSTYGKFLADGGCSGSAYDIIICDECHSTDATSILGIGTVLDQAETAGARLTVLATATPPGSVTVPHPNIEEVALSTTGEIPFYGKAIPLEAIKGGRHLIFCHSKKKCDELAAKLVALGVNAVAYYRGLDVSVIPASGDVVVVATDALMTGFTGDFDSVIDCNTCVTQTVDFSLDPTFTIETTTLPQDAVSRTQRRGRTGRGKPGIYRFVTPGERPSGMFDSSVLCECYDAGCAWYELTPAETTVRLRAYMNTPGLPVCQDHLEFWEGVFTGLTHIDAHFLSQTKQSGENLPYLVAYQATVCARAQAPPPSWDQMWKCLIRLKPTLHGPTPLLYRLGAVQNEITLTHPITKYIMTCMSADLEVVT", "assay": "PubChem AID 2173", "parameters": "species or system Hepacivirus hominis"}, "Estrogen receptor": {"molecular_target": "T1, Estrogen receptor (Homo sapiens, UniProt P03372)", "T1 sequence (P03372 whole entry)": "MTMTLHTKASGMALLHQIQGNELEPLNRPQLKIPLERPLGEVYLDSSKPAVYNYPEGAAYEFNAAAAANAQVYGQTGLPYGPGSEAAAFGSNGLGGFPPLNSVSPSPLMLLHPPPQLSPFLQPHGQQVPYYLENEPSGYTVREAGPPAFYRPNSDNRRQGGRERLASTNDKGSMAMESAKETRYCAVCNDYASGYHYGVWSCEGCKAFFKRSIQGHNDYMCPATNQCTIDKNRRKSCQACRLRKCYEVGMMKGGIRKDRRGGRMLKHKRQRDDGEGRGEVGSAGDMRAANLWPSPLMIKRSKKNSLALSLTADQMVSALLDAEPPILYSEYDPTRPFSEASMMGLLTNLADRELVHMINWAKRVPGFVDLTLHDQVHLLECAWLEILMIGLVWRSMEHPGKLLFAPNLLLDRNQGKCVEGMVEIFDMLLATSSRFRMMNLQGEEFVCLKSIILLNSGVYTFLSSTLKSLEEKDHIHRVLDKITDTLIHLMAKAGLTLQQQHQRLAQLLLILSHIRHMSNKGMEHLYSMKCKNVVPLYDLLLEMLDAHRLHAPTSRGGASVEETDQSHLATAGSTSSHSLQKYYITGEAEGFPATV", "assay": "potentiators of ERα–SRC-1 coactivator binding, dose response, biochemical, TR-FRET, ERα LBD (AID 737)"}, "[2]": {"molecular_target": "Neuropeptide Y receptor type 1 (Homo sapiens, UniProt P25929)", "sequence (P25929 whole entry)": "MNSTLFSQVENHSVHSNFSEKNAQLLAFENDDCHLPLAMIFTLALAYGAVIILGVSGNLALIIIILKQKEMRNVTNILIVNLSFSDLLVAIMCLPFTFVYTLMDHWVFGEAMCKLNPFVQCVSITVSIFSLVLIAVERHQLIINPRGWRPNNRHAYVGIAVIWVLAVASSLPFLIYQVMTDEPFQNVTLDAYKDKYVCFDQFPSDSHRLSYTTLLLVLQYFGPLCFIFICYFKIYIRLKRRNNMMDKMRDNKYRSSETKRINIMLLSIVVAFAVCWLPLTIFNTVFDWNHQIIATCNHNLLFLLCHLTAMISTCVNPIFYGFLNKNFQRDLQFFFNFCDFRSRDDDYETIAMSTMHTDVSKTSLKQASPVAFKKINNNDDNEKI", "assay_type": "functional"}, "[3]": {"molecular_target": "Neuropeptide Y receptor type 2 (Homo sapiens, UniProt P49146)", "sequence (P49146 whole entry)": "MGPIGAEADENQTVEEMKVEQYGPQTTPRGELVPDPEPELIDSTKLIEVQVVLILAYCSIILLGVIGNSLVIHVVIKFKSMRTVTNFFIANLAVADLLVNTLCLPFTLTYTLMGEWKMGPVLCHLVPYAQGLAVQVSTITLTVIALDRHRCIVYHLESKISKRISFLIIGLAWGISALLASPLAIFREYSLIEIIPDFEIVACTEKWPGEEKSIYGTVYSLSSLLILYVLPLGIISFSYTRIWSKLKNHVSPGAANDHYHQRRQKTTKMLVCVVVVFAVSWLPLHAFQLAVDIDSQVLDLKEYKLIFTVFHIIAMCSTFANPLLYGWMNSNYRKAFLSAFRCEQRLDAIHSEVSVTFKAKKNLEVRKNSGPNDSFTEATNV", "assay_type": "functional, cell-based"}, "[4]": {"assay": "growth induction of Burl-1 ts yeast mutant, dose response, counter-screen for SUMOylation pathway inhibitor project, whole organism, S. cerevisiae, luminescence (AID 463199)", "assay_type": "functional"}, "H9c2": {"test_system": "H9c2", "assay": "cells", "assay_type": "functional, cell-based", "details": "Rattus norvegicus, H9c2, Myocardium"}}, "note": "The source made the active and inactive calls.", "data": [{"compound": "Cc1cccc(NC2=NC(=O)/C(=C/C=C/c3ccco3)S2)c1C", "values": [{"measurement": "CC50", "setting": "[1]", "value": "12.1 µM (active)"}, {"measurement": "IC50", "setting": "NS3", "value": "5.49 µM (active)"}]}, {"compound": "Cc1cc(C(=O)CSc2nnc(-c3ccccc3F)o2)c(C)n1Cc1cccs1", "values": [{"measurement": "EC50", "setting": "Estrogen receptor", "value": "6.97 µM (active)"}]}, {"compound": "O=C(Nc1cccc(/N=C/c2cc(Br)cc(Br)c2O)c1)c1ccco1", "values": [{"measurement": "IC50", "setting": "[2]", "value": "> 35 µM (not active)"}, {"measurement": "IC50", "setting": "[3]", "value": "> 35 µM (not active)"}, {"measurement": "AC50", "setting": "[4]", "value": "57.9 µM (active)"}, {"measurement": "IC50", "setting": "H9c2", "value": "10.8 µM (active)"}]}]}
